Converted amounts (≈) assume the structure as drawn.
Assays:
[1] = system: Staphylococcus aureus X400; experiment: standard agar-dilution assay (MIC); format: cell-based; settings: Staphylococcus aureus X400, methicillin-resistant strain, unit assumed
Procedure: (§1) The MIC's in Table II were determined by standard agar-dilution assays. The MIC's in Table III were obtained using a conventional broth-dilution microtiter test.
^c Methicillinresistant-strain

Streptococcus Group 9960 = experiment: standard agar-dilution assay (MIC); format: cell-based; settings: unit assumed
Procedure: as §1

[2] = system: Staphylococcus aureus X1.1; experiment: standard agar-dilution assay (MIC); format: cell-based; settings: unit assumed
Procedure: as §1

[3] = system: Staphylococcus epidermidis EPI2; experiment: standard agar-dilution assay (MIC); format: cell-based; settings: unit assumed
Procedure: as §1

[4] = system: Staphylococcus epidermidis EPI1; experiment: standard agar-dilution assay (MIC); format: cell-based; settings: unit assumed
Procedure: as §1

[5] = system: Streptococcus pyogenes C203; experiment: standard agar-dilution assay (MIC); format: cell-based; settings: unit assumed
Procedure: as §1

[6] = system: Haemophilus influenzae R252; experiment: standard agar-dilution assay (MIC); format: cell-based; settings: Haemophilus influenzae R252, ampicillin-resistant strain, unit assumed
Procedure: as §1

[7] = system: Haemophilus influenzae Holt; experiment: standard agar-dilution assay (MIC); format: cell-based; settings: ampicillin-sensitive strain, unit assumed
Procedure: as §1

[8] = system: Staphylococcus aureus S13E; experiment: standard agar-dilution assay (MIC); format: cell-based; settings: unit assumed
Procedure: as §1

[9] = system: Streptococcus Group D X66; experiment: standard agar-dilution assay (MIC); format: cell-based; settings: unit assumed
Procedure: as §1

[10] = system: Streptococcus pyogenes C203; experiment: experimental infection in mice (ED50); format: in vivo; settings: doses given 1 and 4 hours postinfection
Procedure: The 23-ester derivatives of DMT of this invention have shown in vivo antimicrobial activity against experimental bacterial infections caused by gram-positive bacteria. When two doses of test compound were admininstered to mice with experimental infections, the activity observed was measured as an ED50 value [effective dose in mg/kg to protect 50% of the test animals: see Warren Wick, et al., J. Bacteriol. 81, 233-235 (1961)].
^a mg/kg × 2; doses given 1 and 4 hours postinfection

[11] = system: Staphylococcus aureus V41; experiment: standard agar-dilution assay (MIC); format: cell-based; settings: Staphylococcus aureus V41, penicillin-resistant strain, unit assumed
Procedure: as §1
^b Penicillinresistant strain

[12] = system: Streptococcus pneumoniae Park I; format: cell-based; settings: agar dilution, unit assumed
Procedure: as §1

[13] = system: Pasteurella multocida 60A; experiment: conventional broth-dilution microtiter test (MIC); format: cell-based; settings: avian isolate, unit assumed
Procedure: as §1

Mycoplasma hyorhinis = experiment: conventional broth-dilution microtiter test (MIC); format: cell-based; settings: unit assumed
Procedure: as §1

Staphylococcus aureus = experiment: conventional broth-dilution microtiter test (MIC); format: cell-based; settings: unit assumed
Procedure: as §1

Mycoplasma gallisepticum = experiment: conventional broth-dilution microtiter test (MIC); format: cell-based; settings: unit assumed
Procedure: as §1

Streptococcus sp. 80 = experiment: conventional broth-dilution microtiter test (MIC); format: cell-based; settings: unit assumed
Procedure: as §1

[14] = system: Pasteurella multocida 17E; experiment: conventional broth-dilution microtiter test (MIC); format: cell-based; settings: bovine isolate, unit assumed
Procedure: as §1

Mycoplasma synoviae = experiment: conventional broth-dilution microtiter test (MIC); format: cell-based; settings: unit assumed
Procedure: as §1

Structure (SMILES) | MIC [1] | MIC (Streptococcus Group 9960) | MIC [2] | MIC [3] | MIC [4] | MIC [5] | MIC [6] | MIC [7] | MIC [8] | MIC [9] | ED50 ([10]; C203, oral) | ED50 ([10]; C203, sc, subcutaneous) | MIC [11] | MIC [12] | MIC [13] | MIC (Mycoplasma hyorhinis) | MIC (Staphylococcus aureus) | MIC (Mycoplasma gallisepticum) | MIC (Streptococcus sp. 80) | MIC [14] | further results
CCC1OC(=O)CC(O)C(C)C(OC2OC(C)C(OC3CC(C)(O)C(O)C(C)O3)C(N(C)C)C2OC(C)=O)C(CC=O)CC(C)C(=O)C=CC(C)=CC1COC(C)=O (centres unmarked) [Compound 1, 2',23-Di-O-Acetyl-DMT] | 2 µg/mL (≈ 2.42 µM) | 1 µg/mL (≈ 1.21 µM) | 1 µg/mL (≈ 1.21 µM) | 2 µg/mL (≈ 2.42 µM) | 2 µg/mL (≈ 2.42 µM) | 1 µg/mL (≈ 1.21 µM) | 16 µg/mL (≈ 19.4 µM) | 16 µg/mL (≈ 19.4 µM) | 2 µg/mL (≈ 2.42 µM) | 2 µg/mL (≈ 2.42 µM) | 212 mg/kg | > 20 mg/kg | 1 µg/mL (≈ 1.21 µM) | 0.25 µg/mL (≈ 0.303 µM) | 12.5 µg/mL (≈ 15.1 µM) | 3.12 µg/mL (≈ 3.78 µM) | 0.78 µg/mL (≈ 0.944 µM) | 0.39 µg/mL (≈ 0.472 µM) | 0.78 µg/mL (≈ 0.944 µM) | 6.25 µg/mL (≈ 7.57 µM) | 
CCC(=O)OCC1C=C(C)C=CC(=O)C(C)CC(CC=O)C(OC2OC(C)C(OC3CC(C)(O)C(O)C(C)O3)C(N(C)C)C2OC(=O)CC)C(C)C(O)CC(=O)OC1CC (centres unmarked) [Compound 3, 2',23-Di-O-Propionyl-DMT] | 2 µg/mL (≈ 2.34 µM) | 1 µg/mL (≈ 1.17 µM) | 0.5 µg/mL (≈ 0.585 µM) | 1 µg/mL (≈ 1.17 µM) | 0.5 µg/mL (≈ 0.585 µM) | 0.5 µg/mL (≈ 0.585 µM) | 16 µg/mL (≈ 18.7 µM) | 16 µg/mL (≈ 18.7 µM) | 1 µg/mL (≈ 1.17 µM) | 1 µg/mL (≈ 1.17 µM) | 117 mg/kg | > 20 mg/kg | 0.5 µg/mL (≈ 0.585 µM) | 0.5 µg/mL (≈ 0.585 µM) | 12.5 µg/mL (≈ 14.6 µM) | 1.56 µg/mL (≈ 1.83 µM) | 0.78 µg/mL (≈ 0.913 µM) | 0.78 µg/mL (≈ 0.913 µM) | 0.78 µg/mL (≈ 0.913 µM) | 6.25 µg/mL (≈ 7.32 µM) | MIC (Mycoplasma synoviae): 0.195 µg/mL (≈ 0.228 µM)
CCC(=O)OCC1C=C(C)C=CC(=O)C(C)CC(CC=O)C(OC2OC(C)C(OC3CC(C)(O)C(O)C(C)O3)C(N(C)C)C2O)C(C)C(O)CC(=O)OC1CC (centres unmarked) [Compound 4, 23-O-Propionyl-DMT] | 2 µg/mL (≈ 2.51 µM) | 1 µg/mL (≈ 1.25 µM) | 1 µg/mL (≈ 1.25 µM) | 1 µg/mL (≈ 1.25 µM) | 1 µg/mL (≈ 1.25 µM) | 0.5 µg/mL (≈ 0.627 µM) | 32 µg/mL (≈ 40.1 µM) | 32 µg/mL (≈ 40.1 µM) | 1 µg/mL (≈ 1.25 µM) | 1 µg/mL (≈ 1.25 µM) | 300 mg/kg | 13 mg/kg | 0.5 µg/mL (≈ 0.627 µM) |  | 25 µg/mL (≈ 31.3 µM) | 3.12 µg/mL (≈ 3.91 µM) | 0.78 µg/mL (≈ 0.977 µM) | 0.39 µg/mL (≈ 0.489 µM) | 0.39 µg/mL (≈ 0.489 µM) | 6.25 µg/mL (≈ 7.83 µM) | 
CCC1OC(=O)CC(O)C(C)C(OC2OC(C)C(OC3CC(C)(O)C(O)C(C)O3)C(N(C)C)C2O)C(CC=O)CC(C)C(=O)C=CC(C)=CC1COC(=O)OC (centres unmarked) [Compound 25] | 0.5 µg/mL (≈ 0.625 µM) | 0.5 µg/mL (≈ 0.625 µM) | 0.25 µg/mL (≈ 0.313 µM) |  | 0.5 µg/mL (≈ 0.625 µM) | 0.25 µg/mL (≈ 0.313 µM) | 8 µg/mL (≈ 10 µM) | 8 µg/mL (≈ 10 µM) | 0.25 µg/mL (≈ 0.313 µM) | 0.5 µg/mL (≈ 0.625 µM) | > 100 mg/kg | 7.6 mg/kg | 0.5 µg/mL (≈ 0.625 µM) | 0.06 µg/mL (≈ 0.075 µM) | 12.5 µg/mL (≈ 15.6 µM) | 1.56 µg/mL (≈ 1.95 µM) | 1.56 µg/mL (≈ 1.95 µM) | 0.097 µg/mL (≈ 0.121 µM) | 0.78 µg/mL (≈ 0.975 µM) | 6.25 µg/mL (≈ 7.81 µM) | MIC (Mycoplasma synoviae): 0.097 µg/mL (≈ 0.121 µM)
